Laboratory results: patent US20230049952A1, “METHODS AND COMPOUNDS FOR RESTORING MUTANT P53 FUNCTION” (PMV Pharmaceuticals, Inc., priority 2020, published 2023)
Like-named read-outs stand apart in the source and are kept apart here.

Tests used:
[1] = test system: human hepatocytes; conditions: male, 72 h, 100 μM
[2] = test system: BCRP; test: cell batch quality control, BCRP-MDCK monolayers; assay type: in vitro ADME; conditions: dog; BCRP-MDCK cell batch QC; passage 23
Protocol: (§1) BCRP-MDCK cell monolayers were prepared at Absorption Systems. […] Each determination was performed in duplicate.

[3] = molecular target: T1, BCRP (Homo sapiens, UniProt Q9UNQ0); test: BCRP substrate assessment, Caco-2 monolayers; assay type: in vitro ADME; parameters: host or cells: Caco-2 (clone C2BBe1)
T1 sequence (Q9UNQ0 1-655): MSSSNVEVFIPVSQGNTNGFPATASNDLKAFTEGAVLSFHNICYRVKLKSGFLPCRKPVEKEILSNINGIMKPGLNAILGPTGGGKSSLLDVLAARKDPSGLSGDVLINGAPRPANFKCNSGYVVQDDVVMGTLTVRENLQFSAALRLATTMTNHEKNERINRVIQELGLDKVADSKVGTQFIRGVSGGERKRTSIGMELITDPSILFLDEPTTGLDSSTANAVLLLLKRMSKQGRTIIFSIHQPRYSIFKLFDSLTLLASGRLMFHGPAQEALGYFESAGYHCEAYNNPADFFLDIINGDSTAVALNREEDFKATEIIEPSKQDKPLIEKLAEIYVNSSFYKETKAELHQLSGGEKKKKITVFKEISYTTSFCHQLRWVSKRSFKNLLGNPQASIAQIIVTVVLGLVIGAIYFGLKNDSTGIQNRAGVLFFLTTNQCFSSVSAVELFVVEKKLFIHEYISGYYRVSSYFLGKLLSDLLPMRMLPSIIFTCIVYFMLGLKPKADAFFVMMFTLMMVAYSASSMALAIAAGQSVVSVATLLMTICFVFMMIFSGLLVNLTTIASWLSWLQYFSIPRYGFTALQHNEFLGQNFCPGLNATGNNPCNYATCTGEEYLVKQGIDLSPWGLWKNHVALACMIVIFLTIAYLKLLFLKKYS

[4] = molecular target: T1, BCRP; test: BCRP substrate assessment, BCRP-MDCK monolayers; assay type: in vitro ADME
Protocol: as §1

[5] = molecular target: T1, BCRP; test: in vitro
[6] = metabolic stability in cryopreserved hepatocytes; assay type: in vitro ADME, human; conditions: both sexes, pH 7.4; Human cryopreserved hepatocytes; positive control 1 μM
Protocol: (§2) Mixed-gender human cryopreserved hepatocytes, male Sprague-Dawley rat cryopreserved hepatocytes, male CD-1 mouse cryopreserved hepatocytes, male beagle dog cryopreserved hepatocytes, and male cynomolgus monkey cryopreserved hepatocytes were used for the study. The hepatocytes were thawed, pooled into Krebs Henseleit buffer (KHB, pH 7.4), and kept on ice prior to the experiments. […] Each experiment was performed in triplicate. The final DMSO content in the incubation mixture was ≤0.1%. […] Positive controls, testosterone (1 μM) and 7-hydroxycoumarin (7-HC) (100 μM), were performed in parallel to confirm the activity of the hepatocytes. […] Aliquots of testosterone were withdrawn (n=1) at 0, 5, 15, 30, 60, and 120 minutes. Aliquots of 7-HC were withdrawn (n=1) at 0 and 15 minutes. The reaction was immediately terminated by adding three volumes of ice-cold MeCN containing IS. The samples were then mixed and spun by centrifuge to precipitate proteins. An aliquot of the supernatant was then diluted with water. Calibration standards for the analysis of 7-HC metabolites were prepared in matched matrix. […] All samples were analyzed by LC-MS/MS. The peak area response ratio (PARR) vs. IS was compared to the PARR at time 0 to determine the percent remaining at each time point. Half-lives and clearance values were calculated using GraphPad software, fitting to a single-phase exponential decay equation.
(§3) Mixed-gender human cryopreserved hepatocytes, male Sprague-Dawley rat cryopreserved hepatocytes, male CD-1 mouse cryopreserved hepatocytes, male beagle dog cryopreserved hepatocytes, and male cynomolgus monkey cryopreserved hepatocytes were thawed and pooled into KHB buffer (pH 7.4) and kept on ice prior to the experiments. […] Each experiment was performed in triplicate. The final DMSO content in the incubation mixture was ≤0.1%.
(§4) Positive controls, testosterone (1 μM) and 7-hydroxycoumarin (7-HC) (100 μM), were performed in parallel to confirm the activity of the hepatocytes. […] Aliquots of testosterone were withdrawn (n=1) at 0, 5, 15, 30, 60, and 120 minutes. Aliquots of 7-HC were withdrawn (n=1) at 0 and 15 minutes. The reaction was immediately terminated by adding three volumes of ice-cold MeCN containing IS. The samples were then mixed and spun by centrifuge to precipitate proteins. An aliquot of the supernatant was then diluted with water. Calibration standards for the analysis of 7-HC metabolites were prepared in matched matrix. […] All samples were analyzed by LC-MS/MS. Analytical conditions are outlined below. The peak area response ratio (PARR) vs. IS was compared to the PARR at time 0 to determine the percent remaining at each time point. Half-lives and clearance values were calculated using GraphPad software, fitting to a single-phase exponential decay equation.

[7] = test system: human hepatocytes; test: metabolic stability in cryopreserved hepatocytes; assay type: in vitro ADME; conditions: Human cryopreserved hepatocytes; positive control, 1 μM
Protocol: as §2, §3, §4

[8] = metabolic stability in cryopreserved hepatocytes; assay type: in vitro ADME, rat; conditions: Rat cryopreserved hepatocytes
Protocol: as §2, §3, §4

[9] = metabolic stability in cryopreserved hepatocytes; assay type: in vitro ADME, cynomolgus monkey; conditions: Monkey cryopreserved hepatocytes
Protocol: as §2, §3, §4

[10] = metabolic stability in cryopreserved hepatocytes; assay type: in vitro ADME, dog; conditions: Dog cryopreserved hepatocytes
Protocol: Mixed-gender human cryopreserved hepatocytes, male Sprague-Dawley rat cryopreserved hepatocytes, male CD-1 mouse cryopreserved hepatocytes, male beagle dog cryopreserved hepatocytes, and male cynomolgus monkey cryopreserved hepatocytes were used for the study. The hepatocytes were thawed, pooled into Krebs Henseleit buffer (KHB, pH 7.4), and kept on ice prior to the experiments. […] Each experiment was performed in triplicate. The final DMSO content in the incubation mixture was ≤0.1%. […] Aliquots of testosterone were withdrawn (n=1) at 0, 5, 15, 30, 60, and 120 minutes. Aliquots of 7-HC were withdrawn (n=1) at 0 and 15 minutes. The reaction was immediately terminated by adding three volumes of ice-cold MeCN containing IS. The samples were then mixed and spun by centrifuge to precipitate proteins. An aliquot of the supernatant was then diluted with water. Calibration standards for the analysis of 7-HC metabolites were prepared in matched matrix. […] All samples were analyzed by LC-MS/MS. The peak area response ratio (PARR) vs. IS was compared to the PARR at time 0 to determine the percent remaining at each time point. Half-lives and clearance values were calculated using GraphPad software, fitting to a single-phase exponential decay equation.
as §3
Aliquots of testosterone were withdrawn (n=1) at 0, 5, 15, 30, 60, and 120 minutes. Aliquots of 7-HC were withdrawn (n=1) at 0 and 15 minutes. The reaction was immediately terminated by adding three volumes of ice-cold MeCN containing IS. The samples were then mixed and spun by centrifuge to precipitate proteins. An aliquot of the supernatant was then diluted with water. Calibration standards for the analysis of 7-HC metabolites were prepared in matched matrix. […] All samples were analyzed by LC-MS/MS. Analytical conditions are outlined below. The peak area response ratio (PARR) vs. IS was compared to the PARR at time 0 to determine the percent remaining at each time point. Half-lives and clearance values were calculated using GraphPad software, fitting to a single-phase exponential decay equation.

[11] = metabolic stability in cryopreserved hepatocytes; assay type: in vitro ADME, mouse; conditions: Mouse cryopreserved hepatocytes
Protocol: as §2, §3, §4

[12] = male, beagle, pH 7.4, positive control 1 μM
[13] = male, CD-1, pH 7.4, positive control 1 μM

CN(C)CCCN1c2ccccc2Sc2ccc(Cl)cc21 [Chlorpromazine, chlorpromazine]
% MTS Absorbance Relative to Vehicle Control [1]: 59.4%
Formazan Absorbance (n = 6) Mean [1]: 0.174

Nc1nc(Cl)nc2c1ncn2[C@H]1C[C@H](O)[C@@H](CO)O1 [Cladribine, cladribine]
Papp A→B [2]: 0.136 ×10⁻⁶ cm/s
Papp B→A [2]: 18.4 ×10⁻⁶ cm/s
efflux ratio [2]: 135
BCRP Substrate Classification ([3]; Caco-2, Cladribine): Positive
recovery at 120 min ([3]; human, Caco-2, pH 7.4, Caco-2, Cladribine, A-to-B): 80.5%
Papp A→B at 120 min ([3]; human, Caco-2, pH 7.4, Caco-2, Cladribine, A-to-B, read-out: Papp AVG): 0.58 ×10⁻⁶ cm/s
Papp A→B at 120 min ([3]; human, Caco-2, pH 7.4, Caco-2, Cladribine, A-to-B, read-out: Papp R1): 0.681 ×10⁻⁶ cm/s
Papp A→B at 120 min ([3]; human, Caco-2, pH 7.4, Caco-2, Cladribine, A-to-B, read-out: Papp R2): 0.478 ×10⁻⁶ cm/s
recovery at 120 min ([3]; human, Caco-2, pH 7.4, Caco-2, Cladribine, B-to-A): 85.6%
Papp B→A at 120 min ([3]; human, Caco-2, pH 7.4, Caco-2, Cladribine, B-to-A, read-out: Papp AVG): 18.5 ×10⁻⁶ cm/s
Papp B→A at 120 min ([3]; human, Caco-2, pH 7.4, Caco-2, Cladribine, B-to-A, read-out: Papp R1): 17.7 ×10⁻⁶ cm/s
Papp B→A at 120 min ([3]; human, Caco-2, pH 7.4, Caco-2, Cladribine, B-to-A, read-out: Papp R2): 19.3 ×10⁻⁶ cm/s
recovery at 120 min ([3]; human, Caco-2, pH 7.4, with Ko143 0.5 µM, Caco-2, Cladribine + 0.5 μM Ko143, A-to-B): 89.8%
recovery at 120 min ([3]; human, Caco-2, pH 7.4, with Ko143 0.5 µM, Caco-2, Cladribine + 0.5 μM Ko143, B-to-A): 87.7%
efflux ratio at 120 min ([3]; human, pH 7.4, Caco-2, Cladribine): 32
BCRP Substrate Classification ([4]; BCRP-MDCK, Cladribine): Positive
recovery at 120 min ([4]; dog, pH 7.4, BCRP-MDCK, Cladribine, A-to-B): 91.3%
Papp A→B at 120 min ([4]; dog, pH 7.4, BCRP-MDCK, Cladribine, A-to-B, read-out: Papp AVG): 0.211 ×10⁻⁶ cm/s
Papp A→B at 120 min ([4]; dog, pH 7.4, BCRP-MDCK, Cladribine, A-to-B, read-out: Papp R1): 0.142 ×10⁻⁶ cm/s
Papp A→B at 120 min ([4]; dog, pH 7.4, BCRP-MDCK, Cladribine, A-to-B, read-out: Papp R2): 0.28 ×10⁻⁶ cm/s
recovery at 120 min ([4]; dog, pH 7.4, BCRP-MDCK, Cladribine, B-to-A): 92.9%
Papp B→A at 120 min ([4]; dog, pH 7.4, BCRP-MDCK, Cladribine, B-to-A, read-out: Papp AVG): 17.6 ×10⁻⁶ cm/s
Papp B→A at 120 min ([4]; dog, pH 7.4, BCRP-MDCK, Cladribine, B-to-A, read-out: Papp R1): 15.6 ×10⁻⁶ cm/s
Papp B→A at 120 min ([4]; dog, pH 7.4, BCRP-MDCK, Cladribine, B-to-A, read-out: Papp R2): 19.6 ×10⁻⁶ cm/s
recovery at 120 min ([4]; dog, pH 7.4, with Ko143 0.5 µM, BCRP-MDCK, Cladribine + 0.5 μM Ko143, A-to-B): 93.5%
recovery at 120 min ([4]; dog, pH 7.4, with Ko143 0.5 µM, BCRP-MDCK, Cladribine + 0.5 μM Ko143, B-to-A): 107%
efflux ratio at 120 min ([4]; dog, pH 7.4, BCRP-MDCK, Cladribine): 83.3
efflux ratio ([5]; Caco-2, pH 7.4): 32
recovery ([5]; Caco-2, pH 7.4, % Recovery, IC50 determination, Caco-2, Cladribine alone, B-A): 103%
Papp A→B ([5]; Caco-2, pH 7.4, Papp AVG, Caco-2, Cladribine alone, A-to-B): 0.58 ×10⁻⁶ cm/s
Papp B→A ([5]; Caco-2, pH 7.4, Papp AVG, Caco-2, Cladribine alone, B-to-A): 18.5 ×10⁻⁶ cm/s
Papp B→A ([5]; Caco-2, pH 7.4, Papp AVG, IC50 determination, Caco-2, Cladribine alone, B-A): 14.6 ×10⁻⁶ cm/s
Papp A→B ([5]; Caco-2, pH 7.4, Papp R1, Caco-2, Cladribine alone, A-to-B): 0.681 ×10⁻⁶ cm/s
Papp B→A ([5]; Caco-2, pH 7.4, Papp R1, Caco-2, Cladribine alone, B-to-A): 17.7 ×10⁻⁶ cm/s
Papp B→A ([5]; Caco-2, pH 7.4, Papp R1, IC50 determination, Caco-2, Cladribine alone, B-A): 17.8 ×10⁻⁶ cm/s
Papp A→B ([5]; Caco-2, pH 7.4, Papp R2, Caco-2, Cladribine alone, A-to-B): 0.478 ×10⁻⁶ cm/s
Papp B→A ([5]; Caco-2, pH 7.4, Papp R2, Caco-2, Cladribine alone, B-to-A): 19.3 ×10⁻⁶ cm/s
Papp B→A ([5]; Caco-2, pH 7.4, Papp R2, IC50 determination, Caco-2, Cladribine alone, B-A): 11.5 ×10⁻⁶ cm/s
recovery ([5]; Caco-2, pH 7.4, Recovery (%), Caco-2, Cladribine alone, A-to-B): 80.5%
recovery ([5]; Caco-2, pH 7.4, Recovery (%), Caco-2, Cladribine alone, B-to-A): 85.6%

C[C@]12CC[C@H]3[C@@H](CCC4=CC(=O)CC[C@@]43C)[C@@H]1CC[C@@H]2O [testosterone]
half-life [6]: 4.28 min
hepatocyte CLint [6]: 108 µL/min/1e6 cells
CLint [7]: 0.108 mL/min/10^6 cells
CLint ([8]; positive control, 1 μM): 0.405 mL/min/10^6 cells
half-life ([8]; positive control, 1 μM): 1.14 min
hepatocyte CLint ([8]; male, Sprague-Dawley, pH 7.4, positive control 1 μM): 405 µL/min/1e6 cells
half-life ([8]; male, Sprague-Dawley, pH 7.4, positive control 1 μM, read-out: Half-life): 1.14 min
half-life ([9]; positive control 1 μM): 3.08 min
CLint ([9]; positive control, 1 μM): 0.150 mL/min/10^6 cells
half-life ([9]; positive control, 1 μM): 3.08 min
hepatocyte CLint ([9]; male, pH 7.4, positive control 1 μM): 150 µL/min/1e6 cells
CLint ([10]; positive control, 1 μM): 0.0672 mL/min/10^6 cells
half-life [10, 12]: 6.88 min
hepatocyte CLint [10, 12]: 67.2 µL/min/1e6 cells
CLint ([11]; positive control, 1 μM): 0.181 mL/min/10^6 cells
half-life [11, 13]: 2.55 min
hepatocyte CLint [11, 13]: 181 µL/min/1e6 cells
